Laboratory results: ChEMBL document CHEMBL1142166, “Inhibition of antiassociation activity of translation initiation factor 3 by paromomycin” (2007)
Activity calls are given as the source filed them. The rule behind the calls is not given here.

Assays:
[1] = tested on: Escherichia coli; assay: Association of ribosome subunits into 70S ribosome of Escherichia coli MRE600 assessed upto 20 uM in the presence of 1 mM Mg2+; assay type: functional
[2] = target: T1, Translation initiation factor IF-3 (Escherichia coli K-12) (UniProt P0A707); assay: Inhibition of Escherichia coli XL1-Blue IF3 antiassociation activity at 0.1 uM in the presence of 8.2 mM Mg2+
T1 sequence (whole entry): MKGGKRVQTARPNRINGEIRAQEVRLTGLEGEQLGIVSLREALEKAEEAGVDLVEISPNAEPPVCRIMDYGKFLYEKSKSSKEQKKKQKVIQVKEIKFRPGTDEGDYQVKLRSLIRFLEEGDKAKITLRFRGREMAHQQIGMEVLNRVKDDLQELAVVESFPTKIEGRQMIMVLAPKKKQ

[3] = tested on: Escherichia coli; assay: Association of ribosome subunits into 70S ribosome of Escherichia coli MRE600 in presence of 4 mM Mg2+; assay type: functional
[4] = tested on: Escherichia coli; assay: Association of ribosome subunits into 70S ribosome of Escherichia coli MRE600 assessed above 20 uM in the presence of 1 mM Mg2+; assay type: functional, organism-based
[5] = tested on: Escherichia coli; assay: Association of ribosome subunits into 70S ribosome of Escherichia coli MRE600 in presence of 6 mM Mg2+; assay type: functional
[6] = tested on: Escherichia coli; assay: Association of ribosome subunits into 70S ribosome of Escherichia coli MRE600 at 0.1 mM in presence of 4 mM Mg2+; assay type: functional
[7] = target: T1, Translation initiation factor IF-3 (Escherichia coli K-12); assay: Inhibition of Escherichia coli XL1-Blue IF3 binding to 30S subunit at 100 uM in presence of 8.2 mm Mg2+

With `NC[C@@H]1O[C@H](O[C@H]2[C@@H](O)[C@H](O[C@@H]3[C@@H](O)[C@H](N)C[C@H](N)[C@H]3O[C@H]3O[C@H](CO)[C@@H](O)[C@H](O)[C@H]3N)O[C@@H]2CO)[C@H](N)[C@@H](O)[C@@H]1O` [PAROMOMYCIN] the Activity [1] was 50%, the Activity [2] was “Active” and the Activity [3] was 40%. For the same compound, the Activity [4] was “inactive”, the Activity [5] was 55% and the Activity [6] was 70%. For the same compound, the Activity [7] was “inactive”.
